{
  "source": "patent US10576101B2",
  "about": "“Roneparstat combined therapy of multiple myeloma” (Leadiant Biosciences SA, priority 2015, dated 2020)",
  "key": {"CAG HPSE high cells [1]": {"system": "CAG HPSE high cells", "assay": "Experimental metastasis model of myeloma, roneparstat in vivo combination with bortezomib", "parameters": "species or system Mouse, CB. 17/Icr SCID", "conditions": "roneparstat 120 mg/kg/day s.c., bortezomib 0.5 mg/kg/twice a week i.p., two weeks, serum Day 21"}, "[2]": {"system": "a variety of cancer cell types", "conditions": "cited from earlier work"}, "[3]": {"system": "nonclinical tumor models, including multiple myeloma", "conditions": "cited from earlier work"}, "HPSE-high cells": {"system": "HPSE-high cells", "assay": "Cell viability by MTT assay, roneparstat with carfilzomib", "assay_type": "cell-based, human", "conditions": "roneparstat 6.75 μM or carfilzomib 15 nM alone", "source_text": "CAG human myeloma cell line was established at the Myeloma Institute for Research and Therapy (Little Rock, Ark.). CAG cells with modified levels of heparanase expression have been extensively characterized and include (a) heparanase-low (HPSE-low) cells prepared by transfection with empty vector; and (b) heparanase-high (HPSE-high) cells prepared by transfection with vector containing the cDNA for human heparanase. Although HPSE-high cells express a 4-fold higher level of heparanase than do the HPSE-low cells, the elevated levels of enzyme activity present in HPSE-high cells are in the same range as that present in the bone marrow of many myeloma patients (Kelly T. et al, Cancer Res 2003; 63:8749-56). […] The preparation of the CAG-HPSE high cells is described in Yang Y, et al, The Journal Of Biological Chemistry, Vol. 282, No. 18, pp. 13326-13333, May 4, 2007 (see in particular page 13327, left column, the paragraph beginning with “For transfections . . . ”).\nHPSE-high cells were seeded in serum free media overnight and then treated with 6.75 μM roneparstat (Rone) for 6 hours, washed and then treated with carfilzomib (CFZ) (15 nM) for 14 hours and viability was assessed by MTT assay. The MTT assay is a colorimetric assay for assessing cell viability, which takes its name from tetrazolium dye MTT (3-(4,5-dimethylthiazol-2-yl)-2,5-diphenyltetrazolium bromide). […]"}, "[4]": {"system": "solid and hematologic tumor cells", "conditions": "cited from earlier work"}, "proteasome": {"system": "proteasome", "conditions": "in animals; cited from earlier work"}, "[5]": {"system": "models of multiple myeloma, hematologic, and solid tumors", "conditions": "cited from earlier work"}, "CAG HPSE high cells [6]": {"system": "CAG HPSE high cells", "assay_type": "in vivo, Mouse, CB. 17/Icr SCID"}, "CAG HPSE high cells [7]": {"system": "CAG HPSE high cells", "assay_type": "in vivo, Mouse, CB. 17/Icr SCID", "remark": "listed apart in the source"}, "multiple myeloma": {"system": "multiple myeloma", "conditions": "high-dose 200 mg/m^2 followed by ASCT after VAD induction, patients younger than 65 years; cited from earlier work"}, "diabetic nephropathy": {"system": "diabetic nephropathy", "conditions": "mouse models of diabetic nephropathy; cited from earlier work"}, "[8]": {"conditions": "roneparstat 60 mg/kg/day s.c., melphalan 1 mg/kg/week i.p., two weeks, serum Day 21"}},
  "note": "Where two headings read alike, the source gives them in different places.",
  "data": [
    {"molecule": "CC(C)C[C@H](NC(=O)[C@H](Cc1ccccc1)NC(=O)c1cnccn1)B(O)O", "note": "[Bortezomib]", "values": [
      {"measurement": "% of animals with kappa levels (above detection limit)", "setting": "CAG HPSE high cells [1]", "value": 75, "unit": "%"},
      {"measurement": "animals with detectable levels of human immunoglobulin light chain (detectable tumor burden)", "setting": "CAG HPSE high cells [1]", "value": "8/10"},
      {"measurement": "cytotoxicity in vitro", "setting": "[2]", "value": "cytotoxic"},
      {"measurement": "tumor growth in vivo", "setting": "[3]", "value": "causes a delay in tumor growth"}
    ]},
    {"molecule": "CC(C)C[C@H](NC(=O)[C@H](CCc1ccccc1)NC(=O)CN1CCOCC1)C(=O)N[C@@H](Cc1ccccc1)C(=O)N[C@@H](CC(C)C)C(=O)[C@@]1(C)CO1", "note": "[Carfilzomib, (2S)—N—((S)-1-((S)-4-methyl-1-((R)-2-methyloxiran2-yl)-1-oxopentan-2-ylcarbamoyl)-2-phenylethyl)-2-((S)-2-(2-morpholinoacetamido)4-phenylbutanamido)-4-methylpentanamide]", "values": [
      {"measurement": "decrease of viability (MTT), agent administered alone", "setting": "HPSE-high cells", "value": "neither roneparstat or carfilzomib provided significant results"},
      {"measurement": "antiproliferative and proapoptotic activities in vitro", "setting": "[4]", "value": "had antiproliferative and proapoptotic activities"},
      {"measurement": "proteasome activity in blood and tissue", "setting": "proteasome", "value": "inhibited proteasome activity"},
      {"measurement": "tumor growth", "setting": "[5]", "value": "delayed tumor growth"}
    ]},
    {"molecule": "N[C@@H](Cc1ccc(N(CCCl)CCCl)cc1)C(=O)O", "note": "[Melphalan]", "values": [
      {"measurement": "% of animals with kappa levels (above detection limit)", "setting": "CAG HPSE high cells [6]; [8]", "value": 70, "unit": "%"},
      {"measurement": "animals with detectable levels of human immunoglobulin light chain (detectable tumor burden)", "setting": "CAG HPSE high cells [6]; [8]", "value": "7/10"},
      {"measurement": "animals with detectable tumor burden", "setting": "CAG HPSE high cells [7]; after initial melphalan treatment, PBS for the next two weeks", "value": "7/11"},
      {"measurement": "survival", "setting": "multiple myeloma", "value": 5, "unit": "years"}
    ]},
    {"molecule": "Roneparstat", "values": [
      {"measurement": "% of animals with kappa levels (above detection limit)", "setting": "CAG HPSE high cells [1]", "value": 70, "unit": "%"},
      {"measurement": "animals with detectable levels of human immunoglobulin light chain (detectable tumor burden)", "setting": "CAG HPSE high cells [1]", "value": "6/8"},
      {"measurement": "% of animals with kappa levels (above detection limit)", "setting": "CAG HPSE high cells [6]; mouse, in vivo", "value": 89, "unit": "%"},
      {"measurement": "animals with detectable levels of human immunoglobulin light chain (detectable tumor burden)", "setting": "CAG HPSE high cells [6]; mouse, in vivo", "value": "8/9"},
      {"measurement": "animals with detectable tumor burden", "setting": "CAG HPSE high cells [7]; mouse, in vivo", "value": "3/10"},
      {"measurement": "decrease of viability (MTT), agent administered alone", "setting": "HPSE-high cells", "value": "neither roneparstat or carfilzomib provided significant results"},
      {"measurement": "extent of albuminuria and renal damage", "setting": "diabetic nephropathy", "value": "markedly decreased"}
    ]}
  ]
}
